The record followed here is PubChem BioAssay AID248 (DTP/NCI, 2004).

Values joined by “and” are separate entries in the source; they are usually repeats but may differ in a detail not shown here. Equal entries are not always repeated. Inconclusive results and toxic doses are left out.

The subject of this experiment is L1210 leukemia ip in BDF1 mice, survival T/C. In words: NCI In Vivo Anticancer Drug Screen. Data for tumor model L1210 Leukemia (intraperitoneal) in B6D2F1 (BDF1) mice. The settings on record: endpoint: mean survival time, higher = longer survival. Summed up:
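Antitumor effect is assessed in tumor-bearing animals. Survival in the compound arm is compared with a vehicle-dosed control arm and expressed as their quotient.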

The mark [1] stands for this setting: dose: 100.0 mg/kg/injection, schedule: Q04DX003 (ip), vehicle: saline with Tween-80.
Setting [2] is: dose: 200.0 mg/kg/injection, schedule: Q04DX003 (ip), vehicle: saline with Tween-80.
The mark [3] stands for this setting: dose: 100.0 mg/kg/injection, schedule: Q01DX009 (ip), vehicle: Klucel (hydroxypropylcellulose) (HPC).
Where [4] appears, read: dose: 200.0 mg/kg/injection, schedule: Q01DX009 (ip), vehicle: Klucel (hydroxypropylcellulose) (HPC).
Where [5] appears, read: dose: 200.0 mg/kg/injection, schedule: Q04DX003 (ip), vehicle: Klucel (hydroxypropylcellulose) (HPC).
[6] abbreviates: dose: 50.0 mg/kg/injection, schedule: Q01DX009 (ip), vehicle: Klucel (hydroxypropylcellulose) (HPC).
The mark [7] stands for this setting: dose: 50.0 mg/kg/injection, schedule: Q01DX001 (ip), vehicle: carboxymethylcellulose (CMC).
The mark [8] stands for this setting: dose: 100.0 mg/kg/injection, schedule: Q01DX001 (ip), vehicle: carboxymethylcellulose (CMC).
[9] abbreviates: dose: 200.0 mg/kg/injection, schedule: Q01DX001 (ip), vehicle: carboxymethylcellulose (CMC).

Take `COc1ccc(N2C(=O)CCC2=O)cc1`: the T/C runs as follows: (dose: 100.0 mg/kg/injection, schedule: Q01DX009 (ip), vehicle: saline with Tween-80) 107 % of control; under setting [1], 106 % of control; (dose: 200.0 mg/kg/injection, schedule: Q01DX009 (ip), vehicle: saline with Tween-80) 95 % of control; under setting [2], 92 % of control; (dose: 400.0 mg/kg/injection, schedule: Q01DX009 (ip), vehicle: saline with Tween-80) 98 % of control; (dose: 400.0 mg/kg/injection, schedule: Q04DX003 (ip), vehicle: saline with Tween-80) 111 % of control.
With `Cc1n[nH]c(=S)[nH]c1=O`, the T/C is 100 % of control (dose: 50.0 mg/kg/injection, schedule: Q01DX001 (ip), vehicle: saline); 100 % of control (dose: 100.0 mg/kg/injection, schedule: Q01DX001 (ip), vehicle: saline); 100 % of control (dose: 200.0 mg/kg/injection, schedule: Q01DX001 (ip), vehicle: saline); 94 % of control (dose: 400.0 mg/kg/injection, schedule: Q01DX001 (ip), vehicle: saline).
`CN(C)/C=N/n1cnc2c(ncn2C2OC(CO)C(O)C2O)c1=O` (stereo not given): the T/C is, setting by setting: (dose: 100.0 mg/kg/injection, schedule: Q01DX003 (ip), vehicle: saline) 102 % of control; (dose: 200.0 mg/kg/injection, schedule: Q01DX003 (ip), vehicle: saline) 94 % of control.
Regarding `CSc1ccc(NC(=O)Nc2ccccc2)cc1`, the T/C was 116 % of control under setting [3]; 95 % of control (dose: 100.0 mg/kg/injection, schedule: Q04DX003 (ip), vehicle: Klucel (hydroxypropylcellulose) (HPC)); 106 % of control under setting [4]; 93 % of control under setting [5]; 106 % of control (dose: 400.0 mg/kg/injection, schedule: Q01DX009 (ip), vehicle: Klucel (hydroxypropylcellulose) (HPC)); 95 % of control (dose: 400.0 mg/kg/injection, schedule: Q04DX003 (ip), vehicle: Klucel (hydroxypropylcellulose) (HPC)).
As for `COc1ccc(C(C(C(C)=O)C(C)=O)C(C(C)=O)C(C)=O)cc1`, the T/C reads like this: under setting [1], 100 % of control; under setting [2], 93 % of control.
For the compound `CCCCCCCCCOCCOCCOCCN`, the T/C is, setting by setting: (dose: 12.0 mg/kg/injection, schedule: Q01DX009 (ip), vehicle: Klucel (hydroxypropylcellulose) (HPC)) 99 % of control; (dose: 25.0 mg/kg/injection, schedule: Q01DX009 (ip), vehicle: Klucel (hydroxypropylcellulose) (HPC)) 100 % of control; (dose: 25.0 mg/kg/injection, schedule: Q04DX003 (ip), vehicle: saline) 102 % of control; under setting [6], 100 % of control; (dose: 50.0 mg/kg/injection, schedule: Q04DX003 (ip), vehicle: saline) 96 % of control; (dose: 100.0 mg/kg/injection, schedule: Q04DX003 (ip), vehicle: saline) 86 % of control.
Take `CCCSc1nc(N)nc2nc[nH]c12`: the T/C (dose: 1.25 mg/kg/injection, schedule: Q01DX Z (ip), vehicle: carboxymethylcellulose (CMC)) is 91 % of control; the T/C (dose: 2.5 mg/kg/injection, schedule: Q01DX Z (ip), vehicle: carboxymethylcellulose (CMC)) was 114 % of control; the T/C (dose: 2.9 mg/kg/injection, schedule: Q01DX Z (ip), vehicle: carboxymethylcellulose (CMC)) is 114 % of control; the T/C (dose: 4.4 mg/kg/injection, schedule: Q01DX Z (ip), vehicle: carboxymethylcellulose (CMC)) was 116 % of control; the T/C (dose: 5.0 mg/kg/injection, schedule: Q01DX Z (ip), vehicle: carboxymethylcellulose (CMC)) is 118 % of control; the T/C (dose: 8.3 mg/kg/injection, schedule: Q01DX009 (ip), vehicle: saline) is 102 % of control. In addition, the T/C is, setting by setting: (dose: 12.0 mg/kg/injection, schedule: Q01DX009 (ip), vehicle: saline) 105 % of control; (dose: 20.0 mg/kg/injection, schedule: Q01DX Z (ip), vehicle: carboxymethylcellulose (CMC)) 151 % of control and 168 % of control; (dose: 29.0 mg/kg/injection, schedule: Q01DX009 (ip), vehicle: Klucel (hydroxypropylcellulose) (HPC)) 121 % of control; (dose: 40.0 mg/kg/injection, schedule: Q01DX Z (ip), vehicle: carboxymethylcellulose (CMC)) 150 % of control and 153 % of control and 156 % of control; (dose: 62.0 mg/kg/injection, schedule: Q01DX001 (ip), vehicle: other) 108 % of control; (dose: 62.0 mg/kg/injection, schedule: Q## X001 (ip), vehicle: other) 119 % of control. Also, the T/C was 105 % of control (dose: 90.0 mg/kg/injection, schedule: Q01DX Z (ip), vehicle: carboxymethylcellulose (CMC)); 118 % of control and 88 % of control (dose: 125.0 mg/kg/injection, schedule: Q01DX001 (ip), vehicle: other); 123 % of control (dose: 125.0 mg/kg/injection, schedule: Q## X001 (ip), vehicle: other); 92 % of control (dose: 135.0 mg/kg/injection, schedule: Q01DX Z (ip), vehicle: carboxymethylcellulose (CMC)); 151 % of control (dose: 160.0 mg/kg/injection, schedule: Q01DX Z (ip), vehicle: carboxymethylcellulose (CMC)); 90 % of control (dose: 200.0 mg/kg/injection, schedule: Q01DX009 (ip), vehicle: saline). For the same compound, the T/C was 120 % of control and 124 % of control (dose: 250.0 mg/kg/injection, schedule: Q01DX001 (ip), vehicle: other); 115 % of control and 118 % of control (dose: 300.0 mg/kg/injection, schedule: Q01DX001 (ip), vehicle: other); 117 % of control (dose: 300.0 mg/kg/injection, schedule: Q## X001 (ip), vehicle: other); 101 % of control (dose: 400.0 mg/kg/injection, schedule: Q01DX001 (ip), vehicle: other); 101 % of control (dose: 400.0 mg/kg/injection, schedule: Q## X001 (ip), vehicle: other); 203 % of control (dose: 500.0 mg/kg/injection, schedule: Q## X001 (ip), vehicle: other).
Consider `CC(C)c1ccc(/C=N/N=C(N)N)cc1`, for which the T/C (dose: 3.8 mg/kg/injection, schedule: Q01DX Z (ip), vehicle: other) is 100 % of control; the T/C (dose: 7.5 mg/kg/injection, schedule: Q01DX Z (ip), vehicle: other) is 102 % of control; the T/C (dose: 15.0 mg/kg/injection, schedule: Q01DX Z (ip), vehicle: other) is 94 % of control.
As for `CN1c2ccccc2Sc2ccccc21`, the T/C is, setting by setting: under setting [7], 94 % of control; under setting [8], 96 % of control; under setting [9], 107 % of control.
`CCCCC(=O)N/N=C/c1ccc(Cl)c(Cl)c1`: the T/C under setting [8] was 88 % of control; the T/C under setting [9] was 110 % of control; the T/C (dose: 400.0 mg/kg/injection, schedule: Q01DX001 (ip), vehicle: carboxymethylcellulose (CMC)) is 91 % of control.
`COc1cc2c(cc1OC)C(Cc1ccc(N)cc1)N(C)CC2` (stereo not given): the T/C is 87 % of control (dose: 10.0 mg/kg/injection, schedule: Q01DX001 (ip), vehicle: saline); 91 % of control (dose: 20.0 mg/kg/injection, schedule: Q01DX001 (ip), vehicle: saline); 94 % of control (dose: 40.0 mg/kg/injection, schedule: Q01DX001 (ip), vehicle: saline); 98 % of control (dose: 80.0 mg/kg/injection, schedule: Q01DX001 (ip), vehicle: saline).
Take `NC(=O)N/N=C1\CC2CC1C1C=CCC21` (stereo not given): the T/C is 102 % of control under setting [7], 93 % of control under setting [8] and 102 % of control under setting [9].
As to `Nc1nc(=S)c2[nH]c(N=Nc3ccc(S(N)(=O)=O)cc3)nc2[nH]1`, the T/C runs as follows: under setting [6], 97 % of control; (dose: 50.0 mg/kg/injection, schedule: Q04DX003 (ip), vehicle: Klucel (hydroxypropylcellulose) (HPC)) 151 % of control; under setting [3], 100 % of control; under setting [4], 100 % of control; under setting [5], 94 % of control.
Consider `NC(=S)N/N=C/c1cc2c(cc1Br)OCO2`, for which the T/C by setting is: (dose: 50.0 mg/kg/injection, schedule: Q01DX001 (ip), vehicle: alcohol) 93 % of control; (dose: 100.0 mg/kg/injection, schedule: Q01DX001 (ip), vehicle: alcohol) 122 % of control; (dose: 200.0 mg/kg/injection, schedule: Q01DX001 (ip), vehicle: alcohol) 112 % of control; (dose: 400.0 mg/kg/injection, schedule: Q01DX001 (ip), vehicle: alcohol) 104 % of control.
